According to publication PMC11555173, “Preparation and preliminary evaluation of a tritium-labeled allosteric P2X4 receptor antagonist” (Purinergic Signalling, 2024):
Entries after “also recorded” stand apart in the source; their conditions may differ. Like-named read-outs stand apart in the source and are kept apart here. Each block holds one molecule with its values, some of them ahead of it.

Key:
[1] = target: T1, human P2X4 receptor (Homo sapiens, UniProt Q99571); experiment: Calcium influx assay, 1321N1 astrocytoma cells stably expressing human P2X4 receptor; format: cell-based; parameters: expressed in transfected cells
T1 sequence (Q99571 1-388): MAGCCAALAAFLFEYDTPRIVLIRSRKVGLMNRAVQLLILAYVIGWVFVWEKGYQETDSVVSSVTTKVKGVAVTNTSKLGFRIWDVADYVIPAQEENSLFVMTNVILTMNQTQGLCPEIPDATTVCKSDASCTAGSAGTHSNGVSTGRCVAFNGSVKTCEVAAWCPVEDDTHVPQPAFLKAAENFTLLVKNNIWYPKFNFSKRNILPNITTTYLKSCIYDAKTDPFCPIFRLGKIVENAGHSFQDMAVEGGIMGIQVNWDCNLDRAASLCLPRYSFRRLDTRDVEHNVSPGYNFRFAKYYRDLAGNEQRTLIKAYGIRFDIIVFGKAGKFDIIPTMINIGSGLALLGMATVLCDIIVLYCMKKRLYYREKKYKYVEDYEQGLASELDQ
Description: Calcium influx assays using 1321N1 astrocytoma cells that stably expressed the human P2X4 receptor were performed. Concentration-dependent inhibition of ATP-induced calcium influx was observed.
(§1) To determine the effects of the compound on P2X4, P2X2, and P2X7 receptors, the agonist-mediated increases in cytosolic Ca^2+ concentrations were measured using the fluorescent Ca^2+ chelating dye Fluo-4 acetoxymethyl ester (AM) (Thermo Fisher Scientific). On the first day, 1321N1 astrocytoma cells (45.000 cells/well) stably expressing the respective P2X receptor were seeded into a 96-well plate (No. 3340, Corning, Kennebunk, Maine, USA), and incubated at 37 °C and 10% of CO2. […]
(§2) Following the incubation, the dye solution was carefully removed, and the antagonist (dissolved in DMSO) and HBSS buffer were added to the cells. […] To activate the receptors, transparent 96-well reagent plates (Boettger, Bodenmais, Germany) containing the agonists dissolved in HBSS buffer (10-fold concentration of previously determined EC80) were prepared. The plates were measured after 30 min of preincubation with antagonist with the imaging plate reader NOVOstar (BMG Labtech GmbH, Offenburg, Germany) at 520 nm for 30 s at 0.4 s intervals.

[2] = target: T1, human P2X4 receptor; experiment: [3H]PSB-OR-2020 radioligand binding assay, HEK293 cell membranes expressing human P2X4 receptor; parameters: expressed in transfected cells; host or cells: HEK293 cells, transient transfection (pQCXIN; pcDNA3.1(-) was also tried)
[3] = target: T2, human P2X1 (Homo sapiens, UniProt P51575); experiment: Calcium influx assay, 1321N1 astrocytoma cells stably expressing human P2X1 receptor; format: cell-based
T2 construct: expressed in transfected cells
T2 sequence (P51575 1-399): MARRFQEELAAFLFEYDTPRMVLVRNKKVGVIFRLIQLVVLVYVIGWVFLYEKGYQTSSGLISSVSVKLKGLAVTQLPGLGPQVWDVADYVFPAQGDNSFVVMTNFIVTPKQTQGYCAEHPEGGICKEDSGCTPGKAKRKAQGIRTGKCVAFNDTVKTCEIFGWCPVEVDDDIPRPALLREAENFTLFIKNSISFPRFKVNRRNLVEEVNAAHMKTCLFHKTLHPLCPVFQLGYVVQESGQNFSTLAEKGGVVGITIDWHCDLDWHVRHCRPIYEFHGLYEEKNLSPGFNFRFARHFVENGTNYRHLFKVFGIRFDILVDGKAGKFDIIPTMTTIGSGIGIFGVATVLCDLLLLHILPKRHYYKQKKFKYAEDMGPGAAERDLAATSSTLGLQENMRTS
Description: (§3) The selectivity of PSB-OR-2020 versus other P2X receptor subtypes was determined in the same type of assay using 1321N1 astrocytoma cells stably expressing the respective human P2X receptor subtype (see Table 1).
as §1, §2

[4] = target: T3, human P2X2 (Homo sapiens, UniProt Q9UBL9); experiment: Calcium influx assay, 1321N1 astrocytoma cells stably expressing human P2X2 receptor; format: cell-based
T3 construct: expressed in transfected cells
T3 sequence (Q9UBL9 1-471): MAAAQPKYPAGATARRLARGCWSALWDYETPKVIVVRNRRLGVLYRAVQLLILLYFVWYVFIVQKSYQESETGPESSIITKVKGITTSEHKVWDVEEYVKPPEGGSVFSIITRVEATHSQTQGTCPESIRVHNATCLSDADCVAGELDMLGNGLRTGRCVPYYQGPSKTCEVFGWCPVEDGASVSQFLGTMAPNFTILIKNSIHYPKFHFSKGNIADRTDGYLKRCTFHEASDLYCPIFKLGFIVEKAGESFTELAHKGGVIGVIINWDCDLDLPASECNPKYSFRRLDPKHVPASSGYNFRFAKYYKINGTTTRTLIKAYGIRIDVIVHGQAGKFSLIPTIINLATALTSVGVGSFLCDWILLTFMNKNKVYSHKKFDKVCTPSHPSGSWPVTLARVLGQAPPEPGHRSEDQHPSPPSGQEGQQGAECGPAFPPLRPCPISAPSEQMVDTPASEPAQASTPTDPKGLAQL

[5] = target: T4, human P2X3 (Homo sapiens, UniProt P56373); experiment: Calcium influx assay, 1321N1 astrocytoma cells stably expressing human P2X3 receptor; format: cell-based
T4 construct: expressed in transfected cells
T4 sequence (P56373 1-397): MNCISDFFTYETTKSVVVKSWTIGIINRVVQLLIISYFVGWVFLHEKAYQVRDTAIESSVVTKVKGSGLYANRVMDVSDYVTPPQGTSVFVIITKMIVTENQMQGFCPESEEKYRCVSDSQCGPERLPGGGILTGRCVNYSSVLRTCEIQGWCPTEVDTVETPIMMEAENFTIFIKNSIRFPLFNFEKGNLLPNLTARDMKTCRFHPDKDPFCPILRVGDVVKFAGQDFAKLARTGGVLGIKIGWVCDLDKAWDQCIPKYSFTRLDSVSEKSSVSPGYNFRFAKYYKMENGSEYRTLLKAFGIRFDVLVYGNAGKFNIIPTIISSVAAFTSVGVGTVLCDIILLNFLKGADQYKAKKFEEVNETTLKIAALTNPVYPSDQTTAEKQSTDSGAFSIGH
Description: as §3, §1, §2

[6] = target: T5, human P2X7 (Homo sapiens, UniProt Q99572); experiment: Calcium influx assay, 1321N1 astrocytoma cells stably expressing human P2X7 receptor (agonist Bz-ATP); format: cell-based; settings: Bz-ATP 6,000 nM (EC80)
T5 construct: expressed in transfected cells
T5 sequence (Q99572 1-595): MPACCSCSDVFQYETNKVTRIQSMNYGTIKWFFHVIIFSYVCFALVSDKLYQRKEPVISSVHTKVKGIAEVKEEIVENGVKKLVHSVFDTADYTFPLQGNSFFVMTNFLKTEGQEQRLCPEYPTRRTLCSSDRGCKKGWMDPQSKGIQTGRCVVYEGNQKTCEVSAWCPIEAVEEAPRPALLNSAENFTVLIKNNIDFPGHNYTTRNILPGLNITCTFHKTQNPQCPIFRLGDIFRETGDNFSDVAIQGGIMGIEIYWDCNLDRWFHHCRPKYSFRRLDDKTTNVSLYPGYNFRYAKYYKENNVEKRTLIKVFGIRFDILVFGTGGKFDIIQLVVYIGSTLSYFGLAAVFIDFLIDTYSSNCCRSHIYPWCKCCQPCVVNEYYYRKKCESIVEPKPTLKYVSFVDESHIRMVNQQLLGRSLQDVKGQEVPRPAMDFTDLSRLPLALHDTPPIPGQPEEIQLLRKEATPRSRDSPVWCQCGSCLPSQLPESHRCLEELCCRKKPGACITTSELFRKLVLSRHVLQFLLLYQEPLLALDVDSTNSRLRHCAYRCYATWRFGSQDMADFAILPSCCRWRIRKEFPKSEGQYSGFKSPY
Description: as §3, §1, §2

[7] = tested on: P2X4 receptor; parameters: method as in PMID 36150180; settings: ref [38]; cited from earlier work
[8] = tested on: P2X4; parameters: method as in PMID 30537520, PMID 34476721; settings: ref [14], [36]; cited from earlier work
[9] = target: T1, human P2X4 receptor; parameters: expressed in transfected cells; host or cells: HEK293 cells, transient transfection (pQCXIN; pcDNA3.1(-) was also tried); settings: ref Müller et al. [36]; cited from earlier work
[10] = tested on: P2X4 receptor; parameters: method as in PMID 35338432; settings: ref [44]; cited from earlier work
[11] = high concentration of competitor, radioligand 10 nM
[12] = 4 °C, three independent association and dissociation experiments, read-out: kinetic KD value (koff/kon)
[13] = vs. [3H]PSB-OR-2020 (10 nM), HEK293 membranes, human P2X4, read-out: KD value, homologous competition binding
[14] = 4 °C, radioligand 10 nM, HEK293 membranes, human P2X4

Structure (SMILES): Nc1ncnc2c1ncn2[C@@H]1O[C@H](COP(=O)(O)OP(=O)(O)OP(=O)(O)O)[C@@H](O)[C@H]1O [ATP, Adenosine 5’-triphosphate, reference compound]
EC80 concentration of agonist ([1]; human P2X4, calcium influx): 300 nM
displacement of [3H]PSB-OR-2020 from its binding site [2, 11]: only slightly displaced; also recorded: does not compete

Structure (SMILES): O=C1CC(=O)N(c2ccnc(-c3noc(=S)[nH]3)c2)c2ccc3ccccc3c2N1 [MRS4719]
effects in a murine ischemic stroke model [7]: neuroprotective and neuro-rehabilitative effects

Structure (SMILES): CC(C)c1cc(Br)c(NC(=O)Nc2cccnc2)c(Br)c1 [BX430, reference compound]
displacement of [3H]PSB-OR-2020 from its binding site [2, 11]: not or only partially be displaced
displacement of [3H]PSB-OR-2020 from its binding site ([2]; high concentrations of competitor, radioligand 10 nM): less than 40%

Structure (SMILES): O=C1CC(=O)N(c2cccc(-c3noc(=S)[nH]3)c2)c2ccc3ccccc3c2N1 [NP-1815-PX]
effects in a murine model of colitis [10]: improve several inflammatory parameters

The next lines start with results.

IC50 [3]: > 10000 nM
IC50 [4]: > 10000 nM
IC50 [5]: 2030 nM
IC50 at P2X3 receptor relative to IC50 at P2X4 receptor ([5]; P2X3 vs P2X4 selectivity): about 300 fold
IC50 [6]: > 10000 nM
IC50 ([1]; read-out: IC50 ± SEM, inhibition of ATP-induced Ca2+ influx): 6.32 ± 1.52 nM
Kd [2, 12]: 7.06 ± 3.23 nM
Bmax value ([2]; homologous competition binding, HEK293 membranes, human P2X4): 71.7 fmol/mg of protein
Kd [2, 13]: 20.4 ± 7.5 nM
Structure (SMILES): Cc1nsc(-c2ccc(C)c(NCC(=O)N3CCc4c3cccc4[C@](C)(O)CO)c2)n1 [PSB-OR-2020, (S)-1-(4-(1,2-dihydroxypropane-2yl)indolin-1-yl)-2-((2-methyl-5-(3-methyl-1,2,4-thiadiazol-5-yl)phenyl)amino)ethane-1-one]

displacement of [3H]PSB-OR-2020 from its binding site [2, 11]: completely displaced
Structure (SMILES): Cc1nsc(-c2ccc(C)c(NCC(=O)c3c[nH]c4ccccc34)c2)n1 [PSB-15417]
efficacy in an animal model of neuropathic pain [8]: showing efficacy
IC50 [9]: 21.9 nM

association half-life [2, 14]: 8.44 ± 2.59 min
dissociation half-life [2, 14]: 20.4 ± 2.9 min
Kd [2, 12]: 7.06 ± 3.23 nM
Kd [2, 13]: 20.4 nM
Structure (SMILES): [3H]c1cc2c(c([C@](C)(O)CO)c1)CCN2C(=O)CNc1cc(-c2nc(C)ns2)c([3H])cc1C [[^3H]PSB-OR-2020]
